Measurements taken from patent US20250002487A1, “HETEROCYCLIC COMPOUNDS AND USES THEREOF” (Ventus Therapeutics U.S., Inc., priority 2021, published 2025).

Biological target: human-cGAS (h-cGAS) (Homo sapiens, UniProt Q8N884)
Experiment: hcGAS Kinase-Glo Assay
Type: biochemical
Conditions: 40 nM h-cGAS, 100 μM ATP, 100 μM GTP, 25 nM dsDNA, 3 h incubation, read-out: hcGAS potency IC50
Method in brief: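 IC50 values come from a luminescence-based Kinase-Glo measurement on human cGAS. Conditions follow the Lama et al. 2019 method with minor modifications.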

human-cGAS (h-cGAS), sequence (Q8N884 whole entry): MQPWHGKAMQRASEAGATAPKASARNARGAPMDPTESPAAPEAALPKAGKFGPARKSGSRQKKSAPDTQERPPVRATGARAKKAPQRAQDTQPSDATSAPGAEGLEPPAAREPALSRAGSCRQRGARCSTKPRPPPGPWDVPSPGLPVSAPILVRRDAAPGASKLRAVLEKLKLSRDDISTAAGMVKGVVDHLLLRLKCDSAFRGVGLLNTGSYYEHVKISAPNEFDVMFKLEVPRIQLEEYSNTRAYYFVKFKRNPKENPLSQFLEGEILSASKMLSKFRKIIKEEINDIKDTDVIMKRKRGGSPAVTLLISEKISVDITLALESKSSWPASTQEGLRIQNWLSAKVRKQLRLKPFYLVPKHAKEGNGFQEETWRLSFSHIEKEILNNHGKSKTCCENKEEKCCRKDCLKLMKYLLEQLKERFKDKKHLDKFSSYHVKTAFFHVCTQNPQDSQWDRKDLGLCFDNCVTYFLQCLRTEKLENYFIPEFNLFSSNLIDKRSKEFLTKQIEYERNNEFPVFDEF

SMILES	IC50 [nM]
CSc1nnc(NC(=O)c2cc(-c3cccc4c3OCCN4)cc(=O)o2)s1 [Compound 275, 4-(3,4-dihydro-2H-benzo[b][1,4]oxazin-8-yl)-N-(5-(methylthio)-1,3,4-thiadiazol-2-yl)-2-oxo-2H-pyran-6-carboxamide]	100 to 500
CSc1nnc(NC(=O)c2cc(-c3cccc(F)c3)cc(=O)o2)s1 [Compound 238, 4-(3-fluorophenyl)-N-(5-methylsulfanyl-1,3,4-thiadiazol-2-yl)-6-oxo-pyran-2-carboxamide]	100 to 500
CSc1nnc(NC(=O)c2cc(-c3cccc4ccncc34)cc(=O)o2)s1 [Compound 277, 4-(isoquinolin-8-yl)-N-(5-(methylthio)-1,3,4-thiadiazol-2-yl)-2-oxo-2H-pyran-6-carboxamide]	500 to 1000
CSc1nnc(NC(=O)c2nnc(N3CCCC3C(=O)O)o2)s1 (centres unmarked) [Compound 111, 1-(5-{[5-(methylsulfanyl)-1,3,4-thiadiazol-2-yl]carbamoyl}-1,3,4-oxadiazol-2-yl)pyrrolidine-2-carboxylic acid]	100 to 500
CSc1nnc(NC(=O)c2cc(-c3cccc4c3cnn4C)cc(=O)o2)s1 [Compound 269, 4-(1-methyl-1H-indazol-4-yl)-N-(5-(methylthio)-1,3,4-thiadiazol-2-yl)-2-oxo-2H-pyran-6-carboxamide]	100 to 500
CSc1nnc(NC(=O)c2cc(-c3ccccc3)ncn2)s1 [Compound 201, N-(5-(methylthio)-1,3,4-thiadiazol-2-yl)-6-phenylpyrimidine-4-carboxamide]	≥ 1000
CSc1nnc(NC(=O)c2onc3c2ccc2ccncc23)s1 [Compound 279, N-(5-(methylthio)-1,3,4-thiadiazol-2-yl)isoxazolo[4,3-h]isoquinoline-3-carboxamide]	500 to 1000
CSc1nnc(NC(=O)c2cc(-c3ncccn3)no2)s1 [Compound 152, N-(5-(Methylthio)-1,3,4-thiadiazol-2-yl)-3-(pyrimidin-2-yl)isoxazole-5-carboxamide]	100 to 500
CSc1nnc(NC(=O)c2nnc3n2CCN(C(=O)OC(C)(C)C)C3)s1 [Compound 98, tert-butyl 3-{[5-(methylsulfanyl)-1,3,4-thiadiazol-2-yl]carbamoyl}-5H,6H,8H-[1,2,4]triazolo[4,3-a]pyrazine-7-carboxylate]	≥ 1000
COc1ccc(Cc2ccc3noc(C(=O)Nc4nnc(SC)s4)c3c2)cc1 [Compound 160, 5-(4-Methoxybenzyl)-N-(5-(methylthio)-1,3,4-thiadiazol-2-yl)benzo[c]isoxazole-3-carboxamide]	500 to 1000
COc1cccc(Cc2ccc3noc(C(=O)Nc4nnc(SC)s4)c3c2)c1 [Compound 161, 5-(3-methoxybenzyl)-N-(5-(methylthio)-1,3,4-thiadiazol-2-yl)benzo[c]isoxazole-3-carboxamide]	500 to 1000
COc1ccc2noc(C(=O)Nc3nnc(SC)s3)c2c1 [Compound 224, 5-methoxy-N-[5-(methylsulfanyl)-1,3,4-thiadiazol-2-yl]-2,1-benzoxazole-3-carboxamide]	≥ 1000
CSc1nnc(NC(=O)c2noc(C3CCCCC3)n2)s1 [Compound 263, 5-cyclohexyl-N-(5-(methylthio)-1,3,4-thiadiazol-2-yl)-1,2,4-oxadiazole-3-carboxamide]	≥ 1000
CSc1nnc(NC(=O)c2cc(-c3ccc(=O)[nH]c3)cc(=O)o2)s1 [Compound 272, N-(5-(methylthio)-1,3,4-thiadiazol-2-yl)-2-oxo-4-(6-oxo-1,6-dihydropyridin-3-yl)-2H-pyran-6-carboxamide]	500 to 1000
CSc1nnc(NC(=O)c2nnc(N(C)C(C)c3ccccc3)o2)s1 (centres unmarked) [Compound 114, 5-[methyl(1-phenylethyl)amino]-N-[5-(methylsulfanyl)-1,3,4-thiadiazol-2-yl]-1,3,4-oxadiazole-2-carboxamide]	500 to 1000
CSc1nnc(NC(=O)c2onc3ccc(Cc4ccc(O)c(O)c4)cc23)s1 [Compound 186, 5-(3,4-Dihydroxybenzyl)-N-(5-(methylthio)-1,3,4-thiadiazol-2-yl)benzo[c]isoxazole-3-carboxamide]	500 to 1000
CSc1nnc(NC(=O)c2onc3c(C)cccc23)s1 [Compound 226, 7-methyl-N-[5-(methylsulfanyl)-1,3,4-thiadiazol-2-yl]-2,1-benzoxazole-3-carboxamide]	≥ 1000
CSc1nnc(NC(=O)c2cc(-c3ccc(C)cc3)cc(=O)o2)s1 [Compound 250, N-(5-methylsulfanyl-1,3,4-thiadiazol-2-yl)-6-oxo-4-(p-tolyl)pyran-2-carboxamide]	100 to 500
CSc1nnc(NC(=O)c2onc3cc(C(=O)O)ccc23)s1 [Compound 204]	100 to 500
CSc1nnc(NC(=O)c2nnc(N(C)Cc3ccccc3)o2)s1 [Compound 113, 5-[benzyl(methyl)amino]-N-[5-(methylsulfanyl)-1,3,4-thiadiazol-2-yl]-1,3,4-oxadiazole-2-carboxamide]	500 to 1000
CSc1nnc(NC(=O)c2nnc(N3CCC[C@H]3c3ccccc3)o2)s1 [Compound 126, (S)-N-(5-(methylthio)-1,3,4-thiadiazol-2-yl)-5-(2-phenylpyrrolidin-1-yl)-1,3,4-oxadiazole-2-carboxamide]	500 to 1000
CSc1nnc(NC(=O)c2noc(-c3cccnc3)n2)s1 [Compound 105, N-[5-(methylsulfanyl)-1,3,4-thiadiazol-2-yl]-5-(pyridin-3-yl)-1,2,4-oxadiazole-3-carboxamide]	≥ 1000
O=C(Nc1nnc(-c2ncccn2)s1)c1onc2ccccc12 [Compound 148, N-(5-(pyrimidin-2-yl)-1,3,4-thiadiazol-2-yl)benzo[c]isoxazole-3-carboxamide]	≥ 1000

Next, values leading:

IC50 [nM]	SMILES
500 to 1000	CSc1nnc(NC(=O)c2nc(-c3ccccc3)no2)s1 [Compound 234, N-[5-(methylsulfanyl)-1,3,4-thiadiazol-2-yl]-3-phenyl-1,2,4-oxadiazole-5-carboxamide]
≥ 1000	O=C(Nc1nnc(-c2cccc(F)c2)s1)c1onc2ccccc12 [Compound 25, N-(5-(3-fluorophenyl)-1,3,4-thiadiazol-2-yl)benzo[c]isoxazole-3-carboxamide]
100 to 500	COC(=O)c1cc(C(=O)Nc2nnc(-c3ccccc3Cl)s2)on1 [Compound 1, Methyl 5-((5-(2-chlorophenyl)-1,3,4-thiadiazol-2-yl)carbamoyl)isoxazole-3-carboxylate]
100 to 500	CC(C)(C)OC(=O)Nc1cc(C(=O)Nc2nnc(-c3ccccc3Cl)s2)on1 [Compound 3, tert-butyl (5-((5-(2-chlorophenyl)-1,3,4-thiadiazol-2-yl)carbamoyl)isoxazol-3-yl)carbamate]
100 to 500	O=C(Nc1nnc(-c2ccccc2Cl)s1)c1cc(-c2ncc(F)cn2)no1 [Compound 156, N-(5-(2-Chlorophenyl)-1,3,4-thiadiazol-2-yl)-3-(5-fluoropyrimidin-2-yl)isoxazole-5-carboxamide]
500 to 1000	O=C(Nc1nnc(-c2ccccc2Cl)s1)c1cc(=O)c2cccc(O)c2[nH]1 [Compound 51, N-(5-(2-chlorophenyl)-1,3,4-thiadiazol-2-yl)-8-hydroxy-4-oxo-1,4-dihydroquinoline-2-carboxamide]
< 100	CONC(=O)c1cc(C(=O)Nc2nnc(-c3ccccc3Cl)s2)on1 [Compound 91, N5-(5-(2-chlorophenyl)-1,3,4-thiadiazol-2-yl)-N3-methoxyisoxazole-3,5-dicarboxamide]
500 to 1000	CSc1nnc(NC(=O)c2cc(-c3cccc(F)c3F)no2)s1 [Compound 151, 3-(2,3-Difluorophenyl)-N-(5-(methylthio)-1,3,4-thiadiazol-2-yl)isoxazole-5-carboxamide]
100 to 500	O=C(Nc1nnc(-c2ccccc2C(F)(F)F)s1)c1onc2ccccc12 [Compound 143, N-(5-(2-(trifluoromethyl)phenyl)-1,3,4-thiadiazol-2-yl)benzo[c]iso-xazole-3-carboxamide]
≥ 1000	Cc1nnc(NC(=O)c2onc3ccccc23)s1 [Compound 81, N-(5-methyl-1,3,4-thiadiazol-2-yl)benzo[c]isoxazole-3-carboxamide]
< 100	COCCc1cc(C(=O)Nc2nnc(-c3ccccc3Cl)s2)on1 [Compound 169, N-(5-(2-chlorophenyl)-1,3,4-thiadiazol-2-yl)-3-(2-methoxyethyl)isoxazole-5-carboxamide]
500 to 1000	COCCNC(=O)c1cc(C(=O)Nc2nnc(-c3ccccc3Cl)s2)on1 [Compound 88, N5-(5-(2-chlorophenyl)-1,3,4-thiadiazol-2-yl)-N3-(2-methoxyethyl)isoxazole-3,5-dicarboxamide]
100 to 500	CC1(c2cc(C(=O)Nc3nnc(-c4ccccc4Cl)s3)on2)COC1 [Compound 41, N-(5-(2-chlorophenyl)-1,3,4-thiadiazol-2-yl)-3-(3-methyloxetan-3-yl)isoxazole-5-carboxamide]
≥ 1000	O=C(Nc1nnc(-c2cncs2)s1)c1onc2ccccc12 [Compound 128, N-(5-(thiazol-5-yl)-1,3,4-thiadiazol-2-yl)benzo[c]isoxazole-3-carboxamide]
500 to 1000	O=C(Nc1nnc(-c2ccccc2Cl)s1)c1n[nH]c(=O)[nH]1 [Compound 63, N-(5-(2-chlorophenyl)-1,3,4-thiadiazol-2-yl)-5-oxo-4,5-dihydro-1H-1,2,4-triazole-3-carboxamide]
100 to 500	O=C(Nc1nnc(-c2nccs2)s1)c1onc2ccccc12 [Compound 131, N-(5-(thiazol-2-yl)-1,3,4-thiadiazol-2-yl)benzo[c]isoxazole-3-carboxamide]
< 100	O=C(Nc1nnc(-c2ccccc2Cl)s1)c1onc2c(C(=O)O)cccc12 [Compound 178, 3-((5-(2-chlorophenyl)-1,3,4-thiadiazol-2-yl)carbamoyl)benzo[c]isoxazole-7-carboxylic acid]
100 to 500	COc1ccccc1-c1cc(C(=O)Nc2nnc(SC)s2)oc(=O)c1 [Compound 244, 4-(2-methoxyphenyl)-N-(5-methylsulfanyl-1,3,4-thiadiazol-2-yl)-6-oxo-pyran-2-carboxamide]
